Reference: patent publication US20030109523A1, “Bicyclic antagonists selective for the alphavbeta3 integrin” (Wyeth, priority 1999, published 2003)
Counter-ions that a name gives are not always drawn. Like-named read-outs stand apart in the source and are kept apart here. Blank lines part the entries; values can stand above or below the molecule they belong to. Ends that are not written are not given here. Peptide text beside a SMILES is read from it.

Tests used:
αIIbβ3 integrin = biological target: T1, αIIbβ3 integrin (Homo sapiens, UniProt P05106+P08514); assay: ADP-Induced Platelet Aggregation; type: cell-based; conditions: for IC50: ADP 20 uM, human platelets; for ability to inhibit ADP induced platelet aggregation: reference peptides, at 200 μM
T1 construct: Human Platelets: Platelet-enriched plasma was obtained commercially from a donor pool; from tissue; host or cells: human platelet-rich plasma from a commercial donor pool
T1 sequence (P08514 32-887 limits assumed): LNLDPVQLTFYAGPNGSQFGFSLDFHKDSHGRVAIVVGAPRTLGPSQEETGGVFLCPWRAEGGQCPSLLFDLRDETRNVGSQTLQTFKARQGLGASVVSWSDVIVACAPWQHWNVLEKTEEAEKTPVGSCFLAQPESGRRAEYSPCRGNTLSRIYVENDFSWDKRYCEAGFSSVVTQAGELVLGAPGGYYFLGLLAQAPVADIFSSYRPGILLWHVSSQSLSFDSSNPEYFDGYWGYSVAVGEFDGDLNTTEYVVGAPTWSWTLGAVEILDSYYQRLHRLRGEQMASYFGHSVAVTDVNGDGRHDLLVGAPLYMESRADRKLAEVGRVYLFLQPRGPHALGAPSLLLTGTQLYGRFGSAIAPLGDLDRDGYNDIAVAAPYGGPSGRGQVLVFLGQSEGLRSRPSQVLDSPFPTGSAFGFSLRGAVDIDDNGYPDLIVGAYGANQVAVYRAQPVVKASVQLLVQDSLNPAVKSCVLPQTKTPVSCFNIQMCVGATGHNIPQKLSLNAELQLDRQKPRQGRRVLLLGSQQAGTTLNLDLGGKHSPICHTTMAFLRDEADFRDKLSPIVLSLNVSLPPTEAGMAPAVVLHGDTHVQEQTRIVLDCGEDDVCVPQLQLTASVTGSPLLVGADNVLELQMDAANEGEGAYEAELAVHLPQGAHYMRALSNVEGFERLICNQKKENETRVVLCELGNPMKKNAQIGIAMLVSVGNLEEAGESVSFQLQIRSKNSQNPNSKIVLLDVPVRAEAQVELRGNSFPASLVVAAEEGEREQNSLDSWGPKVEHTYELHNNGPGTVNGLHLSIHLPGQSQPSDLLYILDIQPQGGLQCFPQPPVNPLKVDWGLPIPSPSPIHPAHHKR
T1 sequence (P08514 891-1039 partner limits assumed): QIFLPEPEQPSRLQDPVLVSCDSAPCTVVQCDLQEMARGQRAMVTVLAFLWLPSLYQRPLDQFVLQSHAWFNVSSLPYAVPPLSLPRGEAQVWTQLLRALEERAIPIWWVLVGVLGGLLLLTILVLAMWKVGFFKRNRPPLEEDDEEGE
T1 sequence (P05106 27-788): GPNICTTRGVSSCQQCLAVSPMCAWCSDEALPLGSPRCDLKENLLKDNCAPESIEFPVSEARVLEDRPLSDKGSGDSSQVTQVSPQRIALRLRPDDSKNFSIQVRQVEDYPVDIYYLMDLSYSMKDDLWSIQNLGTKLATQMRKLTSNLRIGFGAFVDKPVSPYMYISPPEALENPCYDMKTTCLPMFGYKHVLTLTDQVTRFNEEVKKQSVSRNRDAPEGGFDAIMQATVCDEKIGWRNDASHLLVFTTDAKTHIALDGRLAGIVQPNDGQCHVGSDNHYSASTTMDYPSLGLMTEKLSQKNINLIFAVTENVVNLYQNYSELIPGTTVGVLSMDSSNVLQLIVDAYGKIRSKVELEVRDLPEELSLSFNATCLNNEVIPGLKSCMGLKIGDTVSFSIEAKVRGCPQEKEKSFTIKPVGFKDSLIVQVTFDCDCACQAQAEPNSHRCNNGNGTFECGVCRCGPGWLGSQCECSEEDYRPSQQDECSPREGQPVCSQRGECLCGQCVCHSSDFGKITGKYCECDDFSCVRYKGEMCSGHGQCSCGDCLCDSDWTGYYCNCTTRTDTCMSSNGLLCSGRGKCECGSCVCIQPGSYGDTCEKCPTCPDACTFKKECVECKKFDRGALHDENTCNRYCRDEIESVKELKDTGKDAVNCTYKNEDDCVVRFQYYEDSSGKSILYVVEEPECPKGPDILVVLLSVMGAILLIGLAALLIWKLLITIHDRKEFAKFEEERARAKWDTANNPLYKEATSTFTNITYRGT
Procedure: Measurement of the Effect of Compounds on ADP-Induced Platelet Aggregation
Measuring the effect of compounds on ADP-induced platelet aggregation mediated by a fibrinogen-αIIbβ3 integrin interaction.
Human Platelets: Platelet-enriched plasma was obtained commercially from a donor pool. The plasma was tested prior to shipment and found to be negative for HIV, HCV and Hepatitis B. Platelet-rich plasma (PRP) was obtained by diluting plasma to an approximate final concentration of 3×10(6) platelets per mL in platelet poor plasma (PPP). PPP was the supernatant of a lowspeed centrifugation of plasma.
Adenosine diphosphate (ADP): ADP was obtained commercially and diluted to 1 mM (stock solution) in distilled, deionized water (ddH2O).
Incubation: PRP and PPP were prewarmed in a water bath at 37° C. […] PRP plus sample compound in a final volume of 500 uL was added to a pre-warmed cuvette in a ChronoLog aggregometer. A control containing PRP and 5 uL of vehicle was treated similarly to the test cuvette; final vehicle concentration was 1%. The two cuvettes were incubated with stirring (1000 rpm) at 37° C. for 5 minutes. Five hundred microliters of PPP was used as a reference (100% aggregation).
Aggregation: To begin the test, ADP was added yielding a final concentration of 20 uM to both samples (plus and minus sample compound). Light transmittance was monitored continuously and compared to the reference cuvette. After five minutes, the test was terminated and the slope and maximal amplitude of the resulting aggregation plot was calculated by the aggregometer.
The percent of maximal aggregation is the ratio of the maximal aggregations of the sample cuvette to the control multiplied by 100 (% Max) and reported as the mean+−standard deviation.

[1] = biological target: T2, Vitronectin Receptor (αVβ3) (Homo sapiens, UniProt P05106+P06756); assay: Vitronectin Receptor (αVβ3) Binding Test Procedure
T2 construct: expressed in transfected cells; host or cells: 512P5 cells (plasma membrane preparation)
T2 sequence (P06756 31-889 limits assumed): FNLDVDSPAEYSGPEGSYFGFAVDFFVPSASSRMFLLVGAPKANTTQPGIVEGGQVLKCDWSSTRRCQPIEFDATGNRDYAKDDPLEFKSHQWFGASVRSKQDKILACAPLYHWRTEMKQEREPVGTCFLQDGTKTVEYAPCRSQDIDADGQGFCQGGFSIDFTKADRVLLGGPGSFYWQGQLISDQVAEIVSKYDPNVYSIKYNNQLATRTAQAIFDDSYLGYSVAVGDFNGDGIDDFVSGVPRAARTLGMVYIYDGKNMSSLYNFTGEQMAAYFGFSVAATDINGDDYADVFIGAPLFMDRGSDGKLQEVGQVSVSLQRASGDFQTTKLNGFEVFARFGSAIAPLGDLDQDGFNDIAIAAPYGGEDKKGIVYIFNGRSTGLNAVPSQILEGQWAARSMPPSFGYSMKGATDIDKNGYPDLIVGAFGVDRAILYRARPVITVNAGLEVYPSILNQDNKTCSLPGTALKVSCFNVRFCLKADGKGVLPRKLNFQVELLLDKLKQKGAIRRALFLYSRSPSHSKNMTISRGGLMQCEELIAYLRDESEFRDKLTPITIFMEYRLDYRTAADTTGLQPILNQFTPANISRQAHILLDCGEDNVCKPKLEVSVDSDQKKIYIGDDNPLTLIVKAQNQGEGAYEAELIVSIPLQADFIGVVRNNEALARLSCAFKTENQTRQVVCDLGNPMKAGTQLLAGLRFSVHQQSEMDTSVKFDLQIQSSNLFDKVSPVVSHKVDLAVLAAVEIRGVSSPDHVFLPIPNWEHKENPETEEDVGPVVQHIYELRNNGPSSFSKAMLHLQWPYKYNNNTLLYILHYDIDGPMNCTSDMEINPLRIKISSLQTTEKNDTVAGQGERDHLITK
T2 sequence (P06756 891-1048 partner limits assumed): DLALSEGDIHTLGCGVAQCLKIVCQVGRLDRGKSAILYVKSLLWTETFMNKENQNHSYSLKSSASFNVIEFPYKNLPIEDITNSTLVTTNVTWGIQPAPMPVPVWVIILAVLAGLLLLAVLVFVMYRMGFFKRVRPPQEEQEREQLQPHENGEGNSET
T2 sequence (P05106 27-788): as the sequence (P05106 27-788) above

αVβ3 integrin = biological target: T3, αVβ3 integrin (Homo sapiens, UniProt P05106+P06756); assay: Osteopontin-αVβ3 Cell Attachment Test Procedure; type: cell-based
T3 construct: αVβ3-expressing cell lines are maintained by standard tissue culture techniques; endogenous in cells; host or cells: αVβ3-expressing cell lines
T3 sequence (P06756 31-889 limits assumed): as the sequence (P06756 31-889 limits assumed) above
T3 sequence (P06756 891-1048 partner limits assumed): as the sequence (P06756 891-1048 partner limits assumed) above
T3 sequence (P05106 27-788): as the sequence (P05106 27-788) above
Procedure: Osteopontin-αVβ3 Cell Attachment Test Procedure
Measuring the effect of compounds on the RGD-dependent attachment of cells to osteopontin mediated by the αVβ3 integrin.
Following incubation the wells were aspirated and washed once with D-PBS; plates can either be used immediately or stored for up to 1 week at 4° C. Prior to assay, the wells were blocked with 1% bovine serum albumin (BSA) in cell suspension media for 1 hour at 37° C. Following the blocking period, wells were aspirated and washed once with D-PBS.
αVβ3-expressing cell lines are maintained by standard tissue culture techniques. […] The cells were pelleted by low-speed centrifugation and washed three times with 0.5 mg/mL trypsin inhibitor in D-PBS (Sigma). The final cell pellet was resuspended in cell suspension media at a concentration of 10^6 cells/mL.
Incubation: 100 μL of diluted test compound was added to osteopontin-coated wells (in triplicate) followed by 100 μL of cell suspension; background cell attachment was determined in uncoated wells. The plate was incubated at 25° C. in a humidified air atmosphere for 1.5 hours. Following the incubation period, the wells were gently aspirated and washed once with D-PBS.
Cell Number Detection: The number of cells attached was determined by an MTT dye conversion assay (Promega) according to the manufacturer's instructions. Briefly, MTT dye was diluted in cell suspension media (15:85) and 100 μL was added to each well. […] The assay plates were covered and incubated at 37° C. in a humidified air atmosphere overnight.
The individual well optical density was expressed as a percentage of the maximal attachment (% Max) wells minus background attachment, and reported as the mean ±standard deviation.

osteoclasts = assay: Osteoclast Bone Pitting; type: cell-based, rat
Procedure: Osteoclast Bone Pitting The test procedure was conducted as described by R. J. Murrills and D. W. […] At this pH the adherent osteoclasts excavate an adequate number of resorption pits for assay purposes. Slices were fixed in 2.5% glutaraldehyde and osteoclasts counted following tartrate-resistant acid phosphatase staining. […] All cells were stripped from the slice by sonication on 0.25M NH4OH and the resorption pits formed by the osteoclasts during the experiment stained with toluidine blue. Resorption pits were quantified by manually counting. The experiments were conducted according to a block design with osteoclasts from each animal exposed to each treatment. Three replicate slices were used per treatment per animal, such that a total of 96 slices were examined for an experiment involving four animals and eight treatments (including control). Several parameters were recorded on a “per slice” basis: number of pits, number of osteoclasts, number of pits per osteoclast, number of fibroblast-like bone cells. SAS or JMP statistical software were used for statistical analysis. […] IC50s were calculated using dose-response curves.

[2] = Table VII, read-out: Platelet Aggregation αIIbβ3 IC50
[3] = @ 30 μM, % Max = percentage of the specific binding, read-out: (αVβ3) RECEPTOR BINDING, % @ concentration
[4] = @ 100 μM, % of maximal attachment, read-out: (αVβ3) CELL ATTACHMENT, % @ concentration
[5] = reference compounds, Table VI, read-out: IC50 (95% Confidence Interval)
[6] = % Max = percentage of the specific binding, read-out: (αVβ3) RECEPTOR BINDING, % @ concentration
[7] = Table VII, @200 μM, percent of maximal aggregation
[8] = @ 100 μM, % of maximal attachment
[9] = read-out: (αVβ3) IC50 RECEPTOR BINDING
[10] = attachment of cells to osteopontin, read-out: (αVβ3) IC50 CELL ATTACHMENT
[11] = reference RGD peptides, 125I-Echistatin 50 pM, read-out: IC50

Molecule: Calcitonin: anti-resorptive used in the clinic; reference compound of the bone pitting test is Rat Calcitonin (CGNLSTCMLGTYTQDLNKFHTFPQTSIGVGAP; ends and bridges not checked; cysteine pairing not given here; UniProt P01257 85-116, looked up) [reference compound]
osteoclast inhibitory activity in this test procedure (osteoclasts; statement in words): significant osteoclast inhibitory activity

Molecule: Echistatin [reference compound]
IC50 (αIIbβ3 integrin; [5]): 0.0156 µM

Molecule: N=C(N)NCCC[C@H](NC(=O)CN)C(=O)NCC(=O)N[C@@H](CC(=O)O)C(=O)N[C@@H](CO)C(=O)N1CCC[C@H]1C(=O)O [GRGDSP, reference compound]
ability to inhibit ADP induced platelet aggregation (αIIbβ3 integrin; Table VI): Inactive at 200

Molecule: N=C(N)NCCCCOc1ccc2c(c1)CCCC(CC(=O)O)C2 (centres unmarked) [Example 63, [2-(4-Guanidino-butoxy)-6,7,8,9-tetrahydro-5H-benzocyclohepten-6-yl]-acetic Acid Trifluoroacetate]
remaining activity at 200 µM (αIIbβ3 integrin; [7]): 51.5% | IC50 [1, 9]: 3.9 µM | IC50 (αVβ3 integrin; [10]): 32.8 µM

Molecule: N=C(N)NCCCOc1ccc2c(c1)CC(CC(=O)O)CC2.O=C(O)C(F)(F)F (centres unmarked) [Example 40, [7-(3-Guanidino-propoxy)-1,2,3,4-tetrahydro-napthalen-2-yl]-acetic Acid Trifluoroacetate]
IC50 (αIIbβ3 integrin; [2]): 148 µM | (αVβ3) RECEPTOR BINDING, % @ concentration [1]: 130% @30 | BONE PITTING INHIBITION (osteoclasts; @ 238 μM): 39%@238 | IC50 (αVβ3 integrin; [10]): 47 µM

Molecule: N=C(N)NCCCCOc1ccc2c(c1)CC(CC(=O)O)C(=O)N2 (centres unmarked) [Example 229, [6-(4-Guanidino-butoxy)-2-oxo-1,2,3,4-tetrahydro-quinolin-3-yl]-acetic Acid]
IC50 (αIIbβ3 integrin; [2]): 146 µM | remaining activity at 30 µM [1, 3]: 100% | inhibition at 214 µM (osteoclasts; Rattus norvegicus, Osteoclast, @ 214 μM): 2% | remaining activity at 100 µM (αVβ3 integrin; [4]): 82%

Molecule: N=C(N)NCCOc1ccc2cc(CC(=O)O)c(=O)[nH]c2c1 [Example 185, [7-(2-Guanidino-ethoxy)-2-oxo-1,2-dihydro-quinolin-3-yl]-acetic Acid]
remaining activity at 200 µM (αIIbβ3 integrin; [7]): 94.8% | inhibition at 239 µM (osteoclasts; Rattus norvegicus, Osteoclast, @ 239 μM): 58% | remaining activity at 20 µM (αVβ3 integrin; @ 20 μM, % of maximal attachment, read-out: (αVβ3) CELL ATTACHMENT, % @ concentration): 102% | remaining activity at 100 µM (αVβ3 integrin; [4]): 96.8%

Molecule: Cc1ccc(S(=O)(=O)NC(=O)CC2CCc3cc(OCCCNC4=NCCCN4)ccc3C2)cc1 (centres unmarked) [Example 217, 4-Methyl-N-({6-[3-(1,4,5,6-tetrahydro-pyrimidin-2-ylamino)-propoxyl]1,2,3,4-tetrahydro-naphthalen-2-yl}-acetyl)-benzenesulfonamide, Trifluoroacetic Acid Salt]
remaining activity at 200 µM (αIIbβ3 integrin; [7]): 98% | IC50 [1, 9]: 14.7 µM | inhibition at 1 µM (osteoclasts; Rattus norvegicus, Osteoclast, @ 1 μM): 51%

Molecule: GRGESP [reference compound]
ability to inhibit ADP induced platelet aggregation (αIIbβ3 integrin; Table VI): Inactive at 200 | ability to inhibit αVβ3 binding ([1]; reference peptide, at 100 μm): inactive at 100 μm

Molecule: GRGDTP [GRGDTP, reference compound]
ability to inhibit ADP induced platelet aggregation (αIIbβ3 integrin; Table VI): Inactive at 200 | IC50 [1, 11]: 0.49 µM | IC50 (αVβ3 integrin): 5.2 µM

Molecule: GRGDNP [GRGDNP, reference compound]
ability to inhibit ADP induced platelet aggregation (αIIbβ3 integrin; Table VI): Inactive at 200 | IC50 [1, 11]: 0.237 µM

More lines, main results first:

IC50 (αIIbβ3 integrin; [2]): 160 µM | remaining activity at 30 µM [1, 3]: 88% | remaining activity at 100 µM (αVβ3 integrin; [4]): 100%
Molecule: CCOC(=O)CC1CCc2cc(OCCCNC(=N)N)ccc2C1 (centres unmarked) [Example 31, [6-(3-Guanidinopropoxy)-1,2,3,4-tetrahydro-napthalen-2-yl]-acetic Acid Ethyl Ester]

IC50 (αIIbβ3 integrin; [5]): 97.6 µM
Molecule: N=C(N)NCCC[C@H](N)C(=O)NCC(=O)N[C@@H](CC(=O)O)C(=O)N[C@@H](Cc1ccccc1)C(=O)O [RGDF, reference compound] (H-RGDF-OH; N-terminus and C-terminus assumed)

remaining activity at 3 µM ([1]; @ 3 μM, % Max = percentage of the specific binding, read-out: (αVβ3) RECEPTOR BINDING, % @ concentration): 98.7% | remaining activity at 10 µM ([1]; @ 10 μM, % Max = percentage of the specific binding, read-out: (αVβ3) RECEPTOR BINDING, % @ concentration): 98.3% | remaining activity at 30 µM [1, 3]: 102% | remaining activity at 100 µM [1, 6]: 99.3%
Molecule: COC(=O)CC1CCc2cc(OCCCNc3ncccn3)ccc2C1 (centres unmarked) [Example 212, {6-[3-(Pyrimidin-2-ylamino)-propoxy]-1,2,3,4-tetrahydro-naphthalen-2-yl}-acetic Acid Methyl Ester]

remaining activity at 200 µM (αIIbβ3 integrin; [7]): 90.3% | remaining activity at 100 µM (αVβ3 integrin; [4]): 100%
Molecule: N=C(N)NCCOc1ccc2c(c1)CC(CCC(=O)O)C(=O)N2 (centres unmarked) [Example 222, 3-[6-(2-Guanidino-ethoxy)-2-oxo-1,2,3,4-tetrahydro-quinolin-3-yl]-propionic Acid]
inhibition at 22 µM (osteoclasts; Rattus norvegicus, Osteoclast, @ 22 μM): -58%

Percent of Maximal (αIIbβ3 integrin; [7]): 83.7@200% | (αVβ3) RECEPTOR BINDING, % @ concentration ([1]; @ 30 μM, % Max = percentage of the specific binding): 57%@ 30 | (αVβ3) CELL ATTACHMENT, % @ concentration (αVβ3 integrin; [8]): 88%@ 100
Molecule: N=C(N)NCCCOc1ccc2c(c1)CC(CC(=O)O)C(=O)N2 (centres unmarked) [Example 228, [6-(3-Guanidino-propoxy)-2-oxo-1,2,3 4-tetrahydro-quinolin-3-yl]-acetic Acid]
BONE PITTING INHIBITION (osteoclasts; @ 230 μM): 7%@ 230

remaining activity at 100 µM [1, 6]: 54%
Molecule: O=C(O)CC1CCc2cc(OCCCNc3ncccn3)ccc2C1 (centres unmarked) [Example 213, {6-[3-(Pyrimidin-2-ylamino)-propoxy]-1,2,3,4-tetrahydro-naphthalen-2-yl}-acetic Acid]

remaining activity at 200 µM (αIIbβ3 integrin; [7]): 58% | IC50 [1, 9]: 0.42 µM | IC50 (αVβ3 integrin; [10]): 0.479 µM
Molecule: O=C(O)CC1CCc2cc(OCCCNC3=NCCCN3)ccc2C1 (centres unmarked) [Example 214, {6-[3-(1,4,5,6-Tetrahydro-pyrimidin-2-ylamino)-propoxy]-1,2,3,4-tetrahydro-naphthalen-2-yl}-acetic Acid]
inhibition at 19 µM (osteoclasts; Rattus norvegicus, Osteoclast, @ 19 μM): 19%

IC50 [1, 9]: 60 µM
Molecule: CCOC(=O)CC1CCc2cc(OCCCNC3=NCCCN3)ccc2C1 (centres unmarked) [Example 216, {6-[3-(1,4,5,6-Tetrahydro-pyrimidin-2-ylamino)-propoxy]-1,2,3,4-tetrahydro-naphthalen-2-yl}-acetic Acid Ethyl Ester, Acetic Acid Salt]
inhibition at 200 µM (osteoclasts; Rattus norvegicus, Osteoclast, @ 200 μM): 95%

(αVβ3) CELL ATTACHMENT, % @ concentration (αVβ3 integrin; @ 20 μM, % of maximal attachment): 102%@ 20 | (αVβ3) CELL ATTACHMENT, % @ concentration (αVβ3 integrin; [8]): 84.2%@ 100
Molecule: [7-(2-Guanidino-ethoxy)-2-oxo-1,2-dihydro-quinolin-3-yl]propionic Acid Methyl Ester [Example 246]
BONE PITTING INHIBITION (osteoclasts; @ 26.2 μM): 52%@ 26.2
